Source: patent US20240033246A1, “COMPOUNDS FOR TREATING EYE DISEASES AND DISORDERS” (The State of Israel, Ministry of Agriculture & Rural …, priority 2020, published 2024)

How the values were obtained:
retinal function = test: Dark-adapted electroretinogram (ERG), retinal function; type: in vivo, RPE65/rd12 mice; settings: eye drops 12.5 mg/ml TTF twice daily, 6 days/week, 12 weeks; n=6; vs placebo eye drops
Protocol: (§1) 3 weeks old RPE65/rd12 mice were treated twice daily (6 days/week) for 12 weeks with eye drops (10p1/eye drop) containing 12.5 mg/ml (34.7 mM) TTF (n=6) or vehicle alone (DMSO, n=6).
For dark adapted ERG, the mice were placed in total darkness for at least 12 h prior to examination. Animals were anesthetized with intraperitoneal injection containing 75 mg/kg ketamine and 10 mg/kg xylazine. Pupils were dilated with topical 1% tropicamide and 10% phenylephrine HCl. ERGs were recorded from both eyes simultaneously, using golden wire loop electrodes positioned on each cornea. Chloride silver electrodes were inserted subcutaneously near the temporal canthi as reference. An additional ground electrode was placed on the tail. Tests were performed under dark adapted (scotopic), and light adapted (photopic) conditions. Five light stimuli at increasing intensities were used (0.0023, 0.25, 2.4, 4.4, 23.5 cd-s/m2). For dark adapted ERG, responses were averaged with stimulus intervals of 1 to 30 s depending on the stimulus light intensity.

[1] = TTF eye drops crossing the corneal barrier, HPLC of anterior chamber fluids; type: in vivo; settings: eye drops 12.5 mg/ml in DMSO, rabbit
Protocol: TTF eye drops (12.5 mg/ml=34.7 mM in DMSO) or vehicle (DMSO) were dropped every 10 seconds on rabbit eyes (10 eye drops of 50 μL per eye−0.5 mL total volume). The eye fluids were collected 45 minutes or 3 hours later. About 100 microliters of anterior chamber fluids were collected from each eye. The eye fluids from both eyes of the same rabbit were pooled and the amount of TTF that penetrated the cornea was determined by IPLC analysis. Twenty microliters of pooled eye fluids were filtered and injected into an Agilent UIHPLC Infinity II 1290 device equipped with a Kinetex 5 μm EVO C18 column (250*4.6 mm). Running conditions were as follows: a 10-minute gradient was delivered at a flow rate of 1 mL/min: 5 minutes in a binary mobile phase which consisted of 0.5% acetic acid (in distilled water), and 5 minutes in acetonitrile in DDW. The detection was performed at a wavelength of 350 nm since, in eye fluids taken from naive rabbits or rabbits given eye drops containing DMSO only, there was no background at 350 nm interfering with the measurement. Under these conditions, the retention time of TTF is 5.086 minutes.

[2] = system: retinal cone photoreceptors; test: Eye cup cultures stained for M-cone opsin (cone photoreceptor cell death in vitro); type: cell-based; settings: 8 nM TTF in growth media, 18 hours, eye cups of 21-day old RPE65/rd12 mice, vs vehicle (0.0115% DMSO)
Protocol: Eyes were obtained from 21-day old RPE65/rd12 mice, and the posterior segment was separated from the cornea, the lens, the iris, and the ciliary body under a surgical microscope. The eye cups were placed onto a microporous membrane (30 mm in diameter; Millicell-CM; Millipore, Bedford, MA) with the ganglion cell layer (GCL) facing up and the sclera facing the filter in a six-well culture plate. Each well contained 1 ml of culture medium consisting of 50% minimum essential medium/HEPES (Sigma, St. Louis, MO), 25% HBSS (Invitrogen, USA), and 25% heat inactivated fetal bovine serum (Invitrogen, USA) supplemented with 200 μM L-glutamine and 5.75 mg/ml glucose and 8 nM natural TTF (nTTF) or synthetic TTF (sTTF) or same volume of vehicle solution (0.0115% DMSO, control). The eye cups were maintained in culture at 37° C., 5% C02 incubator for 18 hours.
The eye cups were fixed with 4% paraformaldehyde (PFA) and embedded in sucrose for cryopreservation. […]
Sections from these eye cups were stained with antibodies directed against M-cone opsin (Milipore, USA) by incubating the sections with antibodies diluted 1:100 in 1% BSA (Sigma) for 16 hrs at 4° C. followed by extensive washing in PBS and 1 hour incubation with 488-AffiniPure Donkey Anti-Mouse IgG antibody (Jackson Immuno Research) at room temperature. […] The number of positively stained cells/mm retina was recorded. […]

IL-1β = IL-1β concentration in retinal lysates (ELISA); type: in vivo, RPE65/rd12 mice; settings: eye drops 12.5 mg/ml TTF in DMSO twice daily, 6 days/week, 3 weeks; vs vehicle
Protocol: 3 weeks old RPE65/rd12 mice were treated twice daily (6 days/week) for 3 weeks with eye drops containing 12.5 mg/ml (34.7 mM) TTF in DMSO (10p1/eye drop) or vehicle alone (DMSO).
Each pair of retinas from the same mouse was homogenized in the same tube in 120 μl lysis buffer containing 10 mM TRIS pH 7.5, 100 mM NaCl, 1 mM EDTA, and 0.01% TRITON X-100. Protein concentration in each sample was determined in duplicates using a commercial kit: Pierce™ BCA Protein Assay Kit (23227), Thermo Fisher Scientific, IL, USA. IL-1β levels were tested using a commercial sandwich ELISA kit: Mouse IL-1 beta/IL-1F2 DuoSet ELISA (DY401). R&D Systems, Inc., MN, USA.

retinal photoreceptors = test: TUNEL staining of photoreceptor layer (photoreceptor apoptosis); type: in vivo, RPE65/rd12 mice; settings: eye drops 12.5 mg/ml TTF in DMSO twice daily, 6 days/week, 3 weeks; n=7; p=0.0013 vs placebo
Protocol: 3 weeks old RPE65/rd12 mice were treated twice daily (6 days/week) for 3 weeks with eye drops containing 12.5 mg/ml (34.7 mM) TTF in DMSO (10 μl/eye drop) or vehicle alone (DMSO).
Mice were euthanized using C02, the eyes were obtained and fixed in 10% formalin. Frozen sections were stained with TUNEL-TMR kit following manufacturer's instructions. The number of TUNEL positive nuclei in the outer nuclear layer was counted as well as the length of retinal sections. Results are shown in FIG. 6 as the number of TUNEL positive nuclei/mm retina.

[3] = Side effects after daily TTF eye drops (general health, retinal and corneal structure); type: in vivo; settings: 12 weeks of daily treatment with TTF eye drops
Protocol: as §1

microglial cells = test: Microglial activation and migration into the sub retina, Iba-1 staining of retina flat mounts; type: in vivo, RPE65/rd12 mice; settings: eye drops 12.5 mg/ml TTF in DMSO twice daily, 6 days/week, 3 weeks; n=10; p=0.0063 vs placebo
Protocol: Eyes were lightly fixed in 4% PFA. The cornea, iris and lens were removed, the neuro-retina was peeled off and the RPE flat mount was incubated with Iba-1 antibodies (Wako chemicals, USA, 1:200 in PBS and 0.1% triton-X) for 16 hours at 4° C., followed by incubation with secondary Alexa Fluor® 488-AffiniPure Donkey Anti-Mouse IgG antibody (Jackson Immuno Research; USA, 1:400 in PBS with 0.2% DAPI) for 2 hours at room temperature. Samples were visualized using a fluorescent microscope (Olympus BX51) and recorded using the Olympus DP71 camera.
3 weeks old RPE65/rd12 mice were treated twice daily (6 days/week) for 3 weeks with eye drops containing 12.5 mg/ml (34.7 mM) TTF in DMSO (10pl/eye drop) or vehicle alone (DMSO). Each treatment consisted of one eye drop. Retina flat mounts of the treated and the control RPE65/rd12 mice were prepared as described above and stained for the microglial specific marker Iba-1.

COc1cc(-c2oc3cc(OC)c(OC)c(O)c3c(=O)c2O)ccc1O [TTF, 3,5,4′-trihydroxy-6,7,3′-trimethoxyflavone]
maximal dark-adapted ERG a-wave amplitude (retinal function): significantly higher
maximal dark-adapted ERG b-wave amplitude (retinal function): significantly higher
crossing of the corneal barrier / penetration into the eye ([1]; 10 drops of 50 μL per eye, anterior chamber fluids): can cross the corneal barrier and penetrate the eye
time of maximal concentration of TTF in eye fluids after eye drops instillation ([1]; fluids collected at 45 minutes or 3 hours): 45 min
cone photoreceptor cell death in cultures of retinas [2]: attenuates cone photoreceptor cell death
IL-1β concentration in the retina (IL-1β): reduced
TUNEL positive cells in the photoreceptor layer (mean±SE) (retinal photoreceptors): 2±0.4 apoptotic cells/mm retina
side effects (general health, retinal and corneal structure) [3]: no side effects were observed
infiltrating subretinal microglia (mean±SD) (microglial cells): 42±14 microglia cells/retina
